This is an account of results in PubChem BioAssay AID1259407 (Chemical Carcinogenesis Research Information System (CCRIS), 2018).

Active and inactive are the calls of the source. The rule behind the calls is not given here.

For the data set, the system named is CCRIS mutagenicity, Ames/micronucleus/aberration tests. Kind of data set: CCRIS mutagenicity studies.
Where [1] appears, read: Test System: AMES SALMONELLA TYPHIMURIUM, Strain/Indicator: TA98, Metabolic Activation: NONE, Method: STANDARD PLATE.
[2] abbreviates: Test System: AMES SALMONELLA TYPHIMURIUM, Strain/Indicator: TA100, Metabolic Activation: NONE, Method: STANDARD PLATE.
[3] abbreviates: Test System: AMES SALMONELLA TYPHIMURIUM, Strain/Indicator: TA1535, Metabolic Activation: NONE, Method: STANDARD PLATE.
[4] abbreviates: Test System: AMES SALMONELLA TYPHIMURIUM, Strain/Indicator: TA1537, Metabolic Activation: NONE, Method: STANDARD PLATE.
Setting [5] is: Test System: AMES SALMONELLA TYPHIMURIUM, Strain/Indicator: TA1538, Metabolic Activation: NONE, Method: STANDARD PLATE.
Where [6] appears, read: Test System: MOUSE LYMPHOMA, Strain/Indicator: L5178Y (TK+/TK-), Metabolic Activation: NONE, Method: SUSPENSION/PLATE.
Where [7] appears, read: Test System: MOUSE LYMPHOMA, Strain/Indicator: L5178Y (TK+/TK-), Metabolic Activation: RAT, LIVER, S-9, AROCLOR 1254, Method: SUSPENSION/PLATE.

Turning to `NC(=O)c1cc[n+](COC[n+]2ccccc2/C=N/O)cc1`, the mutagenic call under setting [1] was “inactive; negative”; the mutagenic call (Test System: AMES SALMONELLA TYPHIMURIUM, Strain/Indicator: TA98, Metabolic Activation: RAT, LIVER, S-9, Method: STANDARD PLATE) was “inactive; negative”; the mutagenic call under setting [2] was “inactive; negative”; the mutagenic call (Test System: AMES SALMONELLA TYPHIMURIUM, Strain/Indicator: TA100, Metabolic Activation: RAT, LIVER, S-9, Method: STANDARD PLATE) is “inactive; negative”; the mutagenic call under setting [3] was “inactive; negative”; the mutagenic call (Test System: AMES SALMONELLA TYPHIMURIUM, Strain/Indicator: TA1535, Metabolic Activation: RAT, LIVER, S-9, Method: STANDARD PLATE) was “inactive; negative”. Moreover, the mutagenic call under setting [4] was “inactive; negative”; the mutagenic call (Test System: AMES SALMONELLA TYPHIMURIUM, Strain/Indicator: TA1537, Metabolic Activation: RAT, LIVER, S-9, Method: STANDARD PLATE) was “inactive; negative”; the mutagenic call under setting [5] is “inactive; negative”; the mutagenic call (Test System: AMES SALMONELLA TYPHIMURIUM, Strain/Indicator: TA1538, Metabolic Activation: RAT, LIVER, S-9, Method: STANDARD PLATE) is “inactive; negative”; the mutagenic call (Test System: CHINESE HAMSTER OVARY, Strain/Indicator: CHO-K1-BH4 (HGPRT)/6-THIOGUANINE, Metabolic Activation: NONE) is “inactive; negative”; the mutagenic call (Test System: CHINESE HAMSTER OVARY, Strain/Indicator: CHO-K1-BH4 (HGPRT)/6-THIOGUANINE, Metabolic Activation: RAT, LIVER, S-9, Method: SUSPENSION/PLATE) was “inactive; negative”. In addition, the mutagenic call under setting [6] was “inactive; negative”.

For `ClC1=C(Cl)[C@]2(Cl)[C@@H]3[C@H]4C[C@H]([C@@H]5O[C@H]45)[C@@H]3[C@@]1(Cl)C2(Cl)Cl`, the mutagenic call by setting is: (Test System: AMES SALMONELLA TYPHIMURIUM, Strain/Indicator: TA97, Metabolic Activation: NONE, Method: STANDARD PLATE) “inactive; negative”; (Test System: AMES SALMONELLA TYPHIMURIUM, Strain/Indicator: TA97, Metabolic Activation: RAT, LIVER, S-9, AROCLOR 1254, Method: STANDARD PLATE) “inactive; negative”; (Test System: AMES SALMONELLA TYPHIMURIUM, Strain/Indicator: TA98, Metabolic Activation: HAMSTER, LIVER, S-9, AROCLOR 1254 (10%), Method: PREINCUBATION) “inactive; negative”; (Test System: AMES SALMONELLA TYPHIMURIUM, Strain/Indicator: TA98, Metabolic Activation: NONE, Method: PREINCUBATION) “inactive; negative”; under setting [1], “inactive; negative”; (Test System: AMES SALMONELLA TYPHIMURIUM, Strain/Indicator: TA98, Metabolic Activation: RAT, LIVER, S-9, AROCLOR 1254 (10%), Method: PREINCUBATION) “inactive; negative”. In addition, the mutagenic call runs as follows: (Test System: AMES SALMONELLA TYPHIMURIUM, Strain/Indicator: TA98, Metabolic Activation: RAT, LIVER, S-9, AROCLOR 1254, Method: STANDARD PLATE) “inactive; negative”; (Test System: AMES SALMONELLA TYPHIMURIUM, Strain/Indicator: TA100, Metabolic Activation: HAMSTER, LIVER, S-9, AROCLOR 1254 (10%), Method: PREINCUBATION) “inactive; negative”; (Test System: AMES SALMONELLA TYPHIMURIUM, Strain/Indicator: TA100, Metabolic Activation: NONE, Method: PREINCUBATION) “inactive; negative”; under setting [2], “inactive; negative”; (Test System: AMES SALMONELLA TYPHIMURIUM, Strain/Indicator: TA100, Metabolic Activation: RAT, LIVER, S-9, AROCLOR 1254 (10%), Method: PREINCUBATION) “inactive; negative”; (Test System: AMES SALMONELLA TYPHIMURIUM, Strain/Indicator: TA100, Metabolic Activation: RAT, LIVER, S-9, AROCLOR 1254, Method: STANDARD PLATE) “inactive; negative”. Also, the mutagenic call is, setting by setting: (Test System: AMES SALMONELLA TYPHIMURIUM, Strain/Indicator: TA102, Metabolic Activation: NONE, Method: STANDARD PLATE) “inactive; negative”; (Test System: AMES SALMONELLA TYPHIMURIUM, Strain/Indicator: TA102, Metabolic Activation: RAT, LIVER, S-9, AROCLOR 1254, Method: STANDARD PLATE) “inactive; negative”; (Test System: AMES SALMONELLA TYPHIMURIUM, Strain/Indicator: TA1535, Metabolic Activation: HAMSTER, LIVER, S-9, AROCLOR 1254 (10%), Method: PREINCUBATION) “inactive; negative”; (Test System: AMES SALMONELLA TYPHIMURIUM, Strain/Indicator: TA1535, Metabolic Activation: NONE, Method: PREINCUBATION) “inactive; negative”; (Test System: AMES SALMONELLA TYPHIMURIUM, Strain/Indicator: TA1535, Metabolic Activation: RAT, LIVER, S-9, AROCLOR 1254 (10%), Method: PREINCUBATION) “inactive; negative”; (Test System: AMES SALMONELLA TYPHIMURIUM, Strain/Indicator: TA1537, Metabolic Activation: HAMSTER, LIVER, S-9, AROCLOR 1254 (10%), Method: PREINCUBATION) “inactive; negative”. Further, the mutagenic call reads like this: (Test System: AMES SALMONELLA TYPHIMURIUM, Strain/Indicator: TA1537, Metabolic Activation: NONE, Method: PREINCUBATION) “inactive; negative”; (Test System: AMES SALMONELLA TYPHIMURIUM, Strain/Indicator: TA1537, Metabolic Activation: RAT, LIVER, S-9, AROCLOR 1254 (10%), Method: PREINCUBATION) “inactive; negative”; under setting [6], “inactive; negative”; under setting [7], “inactive; negative”.

As to `O=C1CCc2c1cc(C(F)(F)F)c1c2ccc2ccccc21`, under “Test System: AMES SALMONELLA TYPHIMURIUM, Strain/Indicator: TA100, Metabolic Activation: RAT, LIVER, S-9, AROCLOR 1254”, the mutagenic call is “active; positive”.

On to `N#Cc1cc(Br)c(O)c(Br)c1`, for which the mutagenic call reads like this: (Test System: AMES SALMONELLA TYPHIMURIUM, Strain/Indicator: TA98, Metabolic Activation: HAMSTER, LIVER, S-9, AROCLOR 1254 (10%), Method: STANDARD PLATE) “inactive; negative”; under setting [1], “inactive; negative”; (Test System: AMES SALMONELLA TYPHIMURIUM, Strain/Indicator: TA98, Metabolic Activation: RAT, LIVER, S-9, AROCLOR 1254 (10%), Method: STANDARD PLATE) “inactive; negative”; (Test System: AMES SALMONELLA TYPHIMURIUM, Strain/Indicator: TA100, Metabolic Activation: HAMSTER, LIVER, S-9, AROCLOR 1254 (10%), Method: STANDARD PLATE) “inactive; negative”; under setting [2], “inactive; negative”; (Test System: AMES SALMONELLA TYPHIMURIUM, Strain/Indicator: TA100, Metabolic Activation: RAT, LIVER, S-9, AROCLOR 1254 (10%), Method: STANDARD PLATE) “inactive; negative”. For the same molecule, the mutagenic call is, setting by setting: (Test System: AMES SALMONELLA TYPHIMURIUM, Strain/Indicator: TA1535, Metabolic Activation: HAMSTER, LIVER, S-9, AROCLOR 1254 (10%), Method: STANDARD PLATE) “inactive; negative”; under setting [3], “inactive; negative”; (Test System: AMES SALMONELLA TYPHIMURIUM, Strain/Indicator: TA1535, Metabolic Activation: RAT, LIVER, S-9, AROCLOR 1254 (10%), Method: STANDARD PLATE) “inactive; negative”; (Test System: AMES SALMONELLA TYPHIMURIUM, Strain/Indicator: TA1537, Metabolic Activation: HAMSTER, LIVER, S-9, AROCLOR 1254 (10%), Method: STANDARD PLATE) “inactive; negative”; under setting [4], “inactive; negative”; (Test System: AMES SALMONELLA TYPHIMURIUM, Strain/Indicator: TA1537, Metabolic Activation: RAT, LIVER, S-9, AROCLOR 1254 (10%), Method: STANDARD PLATE) “inactive; negative”. The mutagenic call (Test System: AMES SALMONELLA TYPHIMURIUM, Strain/Indicator: TA1538, Metabolic Activation: HAMSTER, LIVER, S-9, AROCLOR 1254 (10%), Method: STANDARD PLATE) was “inactive; negative”; the mutagenic call under setting [5] was “inactive; negative”; the mutagenic call (Test System: AMES SALMONELLA TYPHIMURIUM, Strain/Indicator: TA1538, Metabolic Activation: RAT, LIVER, S-9, AROCLOR 1254 (10%), Method: STANDARD PLATE) is “inactive; negative”; the mutagenic call under setting [7] is “active; positive. reevaluation of results: equivocal”; the mutagenic call (Test System: Mouse lymphoma, Strain/Indicator: L5178Y (tk+/tk-), Metabolic Activation: None, Method: Suspension/plate) is “inactive; negative”.
